Laboratory results taken from US20150191484A1, “NOVEL COMPOUNDS HAVING A TETRACYCLIC IRIDOID SKELTON AND AN ANTI-TRYPANOSOMAL AGENT COMPRISING THE SAME AS AN ACTIVE INGREDIENT” (NATIONAL UNIVERSITY CORPORATION TOKYO MEDICAL AND DENTAL …, priority 2014, published 2015).
“Also recorded” adds a separate entry of the source.

Assays:
[1] = MTT cytotoxicity assay, HCT-15; type: cell-based, human; conditions: human, HCT-15 colon cancer cells; HCT-15 colon cancer, 48 h, MTT
Protocol: (§1) The cytotoxic activity of natural products against mammalian cells is an important point in the search for active compounds with biological activity. […] In order to confirm the selective and potent anti-trypanosomal activity of ML-2-2 and ML-2-3, we examined their cytotoxicity in a panel of human cell lines including two human fibroblastic and 8 human cancer-derived cell lines. Cells were seeded in 96-well microplates and incubated with ML-2-2 and ML-2-3 for 48 h at 37° C. in a 5% CO2 humidified incubator. The viabilities of cells were determined with the MTT (3-(4,5-dimethylthiazol-2-yl)-2-5-diphenyltetrazolium bromide) assay. The selectivity index (SI) was determined using the following equation: IC50 against human cells/IC50 against T. brucei. The IC50 values of ML-2-3 were higher than those of ML-2-2 in all the cell lines examined. […] The SI of ML-2-2 indicates values below 1.00 in most cell lines. On the other hand, SI values of ML-2-3 were much higher than those of ML-2-2 in all tested cell lines.

[2] = system: HCT-15 (colon cancer); assay: MTT cytotoxicity assay, HCT-15; type: cell-based, human
Protocol: as §1

[3] = MTT cytotoxicity assay, HF-19; type: cell-based, human; conditions: human, HF-19 normal fibroblast cells; HF-19 normal fibroblast, 48 h, MTT
Protocol: as §1

[4] = system: HF-19 (normal fibroblast); assay: MTT cytotoxicity assay, HF-19; type: cell-based, human
Protocol: as §1

[5] = system: KATOIII (stomach cancer); assay: MTT cytotoxicity assay, KATOIII; type: cell-based, human; conditions: IC50 against KATOIII / IC50 against T. brucei
Protocol: as §1

[6] = MTT cytotoxicity assay, KATOIII; type: cell-based, human; conditions: human, KATOIII stomach cancer cells; KATOIII stomach cancer, 48 h, MTT
Protocol: as §1

[7] = MTT cytotoxicity assay, LoVo; type: cell-based, human; conditions: human, LoVo colon cancer cells; LoVo colon cancer, 48 h, MTT
Protocol: as §1

[8] = system: LoVo (colon cancer); assay: MTT cytotoxicity assay, LoVo; type: cell-based, human; conditions: IC50 against LoVo / IC50 against T. brucei
Protocol: as §1

[9] = system: Jurkat (leukemia); assay: MTT cytotoxicity assay, Jurkat; type: cell-based, human; conditions: IC50 against Jurkat / IC50 against T. brucei
Protocol: as §1

[10] = MTT cytotoxicity assay, Jurkat; type: cell-based, human; conditions: human, Jurkat leukemia cells; Jurkat leukemia, 48 h, MTT
Protocol: as §1

[11] = system: Trypanosoma cells; assay: Nexin apoptosis assay (FACS); type: cell-based, Trypanosoma brucei brucei
Protocol: (§2) The GUTat 3.1 strain of the bloodstream forms of T. b. brucei parasites was used for this study. Parasites were cultured in vitro according to the conditions established by Yabu et al, 1998.
(§3) Parasites were used when they reached a confluent concentration of 1×10^6 parasites/ml. Estimation of parasitemia was done with the Neubauer's counting chamber. Parasites were diluted to a concentration of 3×10^5 parasites/ml with HMI-9 medium and used for the various experiments.
This assay was performed to detect both Phosphatidylserine (PS) signal and fracture of nuclear membraneas markers of apoptosis. Seeding and incubation of parasites with plant materials (extracts, fractions and compounds) were done under the same conditions in Alamar Blue assay. […] The contents of the wells were then subjected to FACS analysis using, the Millipore guava easyCyte 5HT FACS machine for the sorting and estimation of apoptotic parasites according to the manufacturer's instructions.

[12] = system: GUTat 3.1 strain of the bloodstream forms of T. b. brucei parasites; assay: Alamar Blue assay (trypanocidal activity); type: cell-based, Trypanosoma brucei brucei
Protocol: as §2, §3
The Alamar Blue assay was carried out in a 96-well plate. About 1.5×10^4 Parasites were seeded with varied concentrations of the Morinda lucida crude extract, ranging from as low as 0.78 μg/ml to as high as 200 μg/ml, in a ratio of 1:1 in 100 μl volume per well. Berberine, a compound known as anti-trypanocidal agent, was used as a positive control. […] The parasites were incubated with the plant extracts for 24 hours at 37° C. and under 5% CO2. After 24 hours, 10% Alamar Blue dye was added to each well and re-incubated for another 24 hours under the same conditions but in darkness. After a total of 48 hours, the plate was read for absorbance at 540 nm using the TECAN Sunrise Wako Spectrophotometer. An Absorbance-concentration (extract) curve was drawn and the IC50 value of the plant extract was extrapolated. Alamar Blue assay was also performed on the fractions and compounds purified from Morinda Lucida to determine their IC50 values. The IC50 values obtained were compared with that of the positive control and trypanocidal activity determined.

[13] = system: Trypanosoma cells; assay: Cell cycle assay (FACS); type: cell-based, Trypanosoma brucei brucei
Protocol: as §2, §3
This assay was performed to investigate any abnormal change in the parasites' cell cycle which may be caused by extracts/compounds with trypanocidal effect. […] The parasites were collected and transferred into 15 ml centrifuge tubes and centrifuged at 1700 rpm for 10 min, after which the supernatant was discarded. The pelleted parasites were re-suspended in 5 ml PBS solution and vortexed to form a suspension. The parasite suspension was centrifuged at 1700 rpm for 10 min and the supernatant discarded. The pelleted parasites were re-suspended in 1.5 ml of PBS and vortexed thoroughly before adding 3.5 ml absolute EtOH gradually to a final volume of 5 ml 70% EtOH. The parasites were then fixed at −20° C. for 1 h. The cell suspension was then centrifuged at 1700 rpm for 10 min and the supernatant discarded. Pelleted parasites were re-suspended in 200 μl of Guava Cell Cycle reagent, which has Propidium Iodide as its main constituent and incubated at room temperature for 30 min. The solution was transferred to wells of 96-well plate. The well contents were then subjected to FACS analysis using the Millipore guava easyCyte 5HT FACS machine, for the sorting of parasites according to the manufacturer's instructions.

[14] = system: Caco2 (colon cancer); assay: MTT cytotoxicity assay, Caco2; type: cell-based, human; conditions: IC50 against Caco2 / IC50 against T. brucei
Protocol: as §1

[15] = MTT cytotoxicity assay, Caco2; type: cell-based, human; conditions: human, Caco2 colon cancer cells; Caco2 colon cancer, 48 h, MTT
Protocol: as §1

COc1cc(/C=C2/C(=O)O[C@]34C=C[C@@H]5C(C(=O)O)=CO[C@H](O[C@@H]23)[C@@H]54)ccc1O [ML-2-3, (3aS,4aR,4a^1S,7aS,9aS,3E)-3-(4-hydroxy-3-methoxybenzylidene)-2-oxo-2,3,3a,4a,4a^1,7a-hexahydro-1,4,5-trioxadicyclopenta[a,hi]indene-7-carboxylic acid]
IC50 at 48 h [1]: > 50 µM | cytotoxicity (in words) ([2]; HCT-15, highest assayed dose): non-toxic at the highest assayed doses | SI (selectivity index) ([2]; IC50 against HCT-15 / IC50 against T. brucei): >13.33 | IC50 at 48 h [3]: > 50 µM | cytotoxicity (in words) ([4]; HF-19, highest assayed dose): non-toxic at the highest assayed doses | SI (selectivity index) ([4]; IC50 against HF-19 / IC50 against T. brucei): >13.33 | SI (selectivity index) [5]: 6.62 | IC50 at 48 h [6]: 24.8 µM | IC50 at 48 h [7]: 30.4 µM | SI (selectivity index) [8]: 8.10 | SI (selectivity index) [9]: 3.31 | IC50 at 48 h [10]: 12.4 µM | proportion of cells at early stage of apoptosis ([11]; 5 μM, 3 hours incubation): 2.5% | proportion of cells at early stage of apoptosis ([11]; 5 μM, 12 hours of incubation): about 10% | incubation time at which significant increase in proportion of late stage apoptotic cells was observed ([11]; 5 μM, time course 0, 3, 6, 9 and 12 hours): around 6 hours | induction of apoptosis ([11]; 6.25 μM, 24-hour incubation): induced strong apoptosis | early stage apoptotic cells ([11]; 6.25 μM, 24-hour incubation, negative control 0.2%): 7.8% | late stages apoptotic cells ([11]; 6.25 μM, 24-hour incubation, negative control none): 4.4% | induction of apoptosis in Trypanosoma cells ([11]; same concentration (6 μM)): strongly induced apoptosis | IC50 ([12]; T. b. brucei, Alamar Blue, 48 h, read-out: IC50 of anti-trypanosomal activity): 3.75 µM | inhibition of the growth of Trypanosoma brucei brucei (in words) ([12]; in vitro): the most potent in vitro activity | cells with low DNA content (sub-G1 phase) ([13]; 15 μM): a large proportion of cells with low DNA content were detected as sub-G1 phase | numbers of cells in the G2 and M phase of cell cycle ([13]; four times of IC50: 15 μM ML-2-3, 5 μM ML-2-2, 24 hours): significant decrease; also recorded: caused alteration of G2/M phase | SI (selectivity index) [14]: 11.88 | IC50 at 48 h [15]: 44.6 µM
